The record followed here is US20240408325A1, “HANDHELD MEDICAL DEVICE WITH IMPROVED DELIVERY OF AEROSOL PARTICLES” (ALEXZA PHARMACEUTICALS, INC., priority 2021, published 2024).

This data set is described as follows: Purity of the aerosol versus drug foil temperature (Method 2). Format: physicochemical. Particulars: Devices A, 1.0 mg coated. How it is done: Solutions were analysed by UPLC with water (ammonium formate/formic acid) and acetonitrile as mobile phase using UV detection at 275 nm as acquisition wavelength.
This method is based on the US Pharmacopeia “Sampling the Delivered Dose from Metered-Dose Inhalers” of the “Metered-Dose Inhalers and Dry Powder Inhalers” section.
The mouthpiece of the device to be tested was tightly attached to a mouthpiece adapter connected to an end of a 12 cm sample connection tube which at the other end has attached a filter support cap having a ø 47 mm, 2.2 μm pore size, quartz filter (QM-A, Whatman) which was connected to a pump to create an airflow which triggers the flow sensor and the foil substrate is heated.
The material in the filter and the sample connection tube was extracted with methanol and analysed as in Method 1.
The foil substrates of Devices A were coated with 1.0 mg of apomorphine HCl and tested as in Method 2 at different drug foil temperatures (2 devices per temperature point except 310° C. where 4 devices were used). The devices are triggered at a 30 mL/min airflow.

Structures can show the parent of a compound that is named as a salt.

In the case of `CN1CCc2cccc3c2[C@H]1Cc1ccc(O)c(O)c1-3` [apomorphine HCl], the TAerosol purity is, setting by setting: (drug foil 260 °C) 98.4 ± 0.6%; (drug foil 290 °C) 96.4 ± 0.9%; (drug foil 310 °C) 95 ± 1%; (drug foil 320 °C) 90.9 ± 0.8%.
